{"source": "patent US11135184B2", "about": "“Formulations for epidermal repair” (CLARIDEI LABORATORIES, INC., priority 2013, dated 2021)", "key": {"[1]": {"system": "cutaneous lupus erythematosus", "assay": "prior treatment of a patient with cutaneous lupus erythematosus", "format": "in vivo, human", "conditions": "one patient", "source_text": "A patient presented with a three year history of cutaneous lupus erythematosus. They had been suffering from systemic lupus erythematosus for some time before the rash that is characteristic of cutaneous lupus erythematosus appeared on their chest, arms, neck and face.\nPrior to treatment with a treatment regime utilizing the formulations of the present disclosure, this patient had been treated with several different treatment regimens representing the standard of care for cutaneous lupus erythematosus patients. […] All attempts to reduce the patient's suffering from cutaneous lupus erythematosus had brought little to no relief."}, "[2]": {"system": "ultraviolet radiation damage", "conditions": "in vitro model of cutaneous photoaging; cited from earlier work"}, "[3]": {"system": "histamine-induced scratching behavior", "conditions": "applied to the skin of mice; cited from earlier work"}, "NF-kappaB": {"system": "NF-kappaB", "conditions": "histamine-stimulated skin; cited from earlier work"}, "guinea pig ileum": {"system": "guinea pig ileum", "conditions": "cited from earlier work"}, "atopic dry skin": {"system": "atopic dry skin", "conditions": "cited from earlier work"}, "[4]": {"system": "serine palmitoyltransferase", "conditions": "cited from earlier work"}, "[5]": {"system": "3′-5′ cyclic AMP phosphodiesterase", "conditions": "cited from earlier work"}, "[6]": {"system": "lymphocytic transformation", "conditions": "cited from earlier work"}, "[7]": {"system": "11β-hydroxysteroid dehydrogenase", "conditions": "cited from earlier work"}, "[8]": {"conditions": "cited from earlier work"}, "Δ4β-reductase": {"target": "T1, Δ4β-reductase (Homo sapiens, UniProt P51857)", "T1 sequence (P51857 1-326)": "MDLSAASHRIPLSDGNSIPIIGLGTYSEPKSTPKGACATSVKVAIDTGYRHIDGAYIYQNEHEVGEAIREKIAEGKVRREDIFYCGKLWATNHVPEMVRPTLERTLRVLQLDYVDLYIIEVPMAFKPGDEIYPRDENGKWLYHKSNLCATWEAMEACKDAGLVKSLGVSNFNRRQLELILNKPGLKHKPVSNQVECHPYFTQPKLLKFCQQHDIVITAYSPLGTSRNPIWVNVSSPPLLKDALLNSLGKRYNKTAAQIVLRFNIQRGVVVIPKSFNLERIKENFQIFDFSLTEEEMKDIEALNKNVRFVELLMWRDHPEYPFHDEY", "conditions": "in vitro; cited from earlier work"}, "contact dermatitis": {"system": "contact dermatitis", "conditions": "mice, cited from earlier work"}, "Staphylococcus aureus": {"system": "Staphylococcus aureus", "conditions": "in vitro; cited from earlier work"}, "Mycobacterium smegmatis": {"system": "Mycobacterium smegmatis", "conditions": "in vitro; cited from earlier work"}, "Candida albicans": {"system": "Candida albicans", "conditions": "in vitro; cited from earlier work"}}}
{"smiles": "C[C@]12C=CC(=O)C=C1CC[C@@H]1[C@@H]2C(=O)C[C@@]2(C)[C@H]1CC[C@]2(O)C(=O)CO", "note": "[prednisone]", "values": [{"measurement": "effect on cutaneous lupus erythematosus", "setting": "[1]; orally administered", "result": "little or no effect"}]}
{"smiles": "O=C1O[C@H](CO)[C@@H](O)[C@H](O)[C@H]1O", "note": "[glucono delta-lactone, Glucono delta-lactone]", "values": [{"measurement": "protection against ultraviolet radiation", "setting": "[2]", "result": "photoprotective activity"}]}
{"smiles": "CCCCCCCCCCCCCCCCCC(=O)N[C@@H](CO)[C@H](O)[C@H](O)CCCCCCCCCCCCCC", "note": "[N-stearoyl-phytosphingosine, N-Stearoyl-phytosphingosine]", "values": [{"measurement": "histamine-induced scratching behavior", "setting": "[3]", "result": "effectively inhibited"}, {"measurement": "activation of the transcription factor NF-kappaB", "setting": "NF-kappaB", "result": "inhibited"}, {"measurement": "anti-histamine effects in the Magnus test", "setting": "guinea pig ileum", "result": "potent anti-histamine effects"}]}
{"smiles": "CCCCCCCCCCCCCC[C@@H](O)[C@@H](O)[C@@H](N)CO", "note": "[phytosphingosine, Phytosphingosine]", "values": [{"measurement": "histamine-induced scratching behavior", "setting": "[3]", "result": "effectively inhibited"}, {"measurement": "activation of the transcription factor NF-kappaB", "setting": "NF-kappaB", "result": "inhibited"}, {"measurement": "anti-histamine effects in the Magnus test", "setting": "guinea pig ileum", "result": "potent anti-histamine effects"}]}
{"smiles": "NC(=O)c1cccnc1", "note": "[Niacinamide]", "values": [{"measurement": "transepidermal water loss", "setting": "atopic dry skin; atopic dermatitis", "result": "decrease"}, {"measurement": "moisturizer effectiveness compared with white petrolatum", "setting": "atopic dry skin; atopic dry skin", "result": "more effective moisturizer than white petrolatum"}, {"measurement": "de novo synthesis of ceramides (e.g., glucosylceramide and sphingomyelin)", "setting": "[4]", "result": "stimulating"}, {"measurement": "expression of serine palmitoyltransferase", "setting": "[4]", "result": "up-regulated"}, {"measurement": "inhibition of 3′-5′ cyclic AMP phosphodiesterase", "setting": "[5]", "result": "Inhibit"}, {"measurement": "antigen-induced lymphocytic transformation", "setting": "[6]", "result": "suppress"}]}
{"smiles": "CC(=O)Oc1ccccc1C(=O)O", "note": "[aspirin]", "values": [{"measurement": "effect on cutaneous lupus erythematosus", "setting": "[1]; orally administered", "result": "little or no effect"}]}
{"smiles": "CC1(C)[C@@H](OC(=O)CCC(=O)O)CC[C@]2(C)[C@H]3C(=O)C=C4[C@@H]5C[C@@](C)(C(=O)O)CC[C@]5(C)CC[C@@]4(C)[C@]3(C)CC[C@@H]12", "note": "[Carbenoxolone]", "values": [{"measurement": "inhibition of 11β-hydroxysteroid dehydrogenase", "setting": "[7]", "result": "inhibits"}]}
{"smiles": "CCN(CC)CCCC(C)Nc1ccnc2cc(Cl)ccc12", "note": "(centres unmarked) [chloroquin]", "values": [{"measurement": "effect on cutaneous lupus erythematosus", "setting": "[1]; orally administered", "result": "little or no effect"}]}
{"smiles": "CCN(CCO)CCCC(C)Nc1ccnc2cc(Cl)ccc12.O=S(=O)(O)O", "note": "(centres unmarked) [plaquenyl]", "values": [{"measurement": "effect on cutaneous lupus erythematosus", "setting": "[1]; orally administered", "result": "little or no effect"}]}
{"smiles": "C[C@]12CCC(=O)C=C1CC[C@@H]1[C@@H]2C(=O)C[C@@]2(C)[C@H]1CC[C@]2(O)C(=O)CO", "note": "[cortisone]", "values": [{"measurement": "effect on cutaneous lupus erythematosus", "setting": "[1]; shots", "result": "little or no effect"}]}
{"smiles": "O=C(O)[C@H](O)[C@@H](O)[C@H](O[C@@H]1O[C@H](CO)[C@H](O)[C@H](O)[C@H]1O)[C@H](O)CO", "note": "[Lactobionic acid, 4-O-β-galactopyranosyl-β-gluconic acid]", "values": [{"measurement": "pKa", "setting": "[8]", "result": 3.8}]}
{"smiles": "CC1(C)[C@@H](O)CC[C@]2(C)[C@H]3C(=O)C=C4[C@@H]5C[C@@](C)(C(=O)O)CC[C@]5(C)CC[C@@]4(C)[C@]3(C)CC[C@@H]12", "note": "[glycyrrhetinic acid, 18β-glycyrrhetinic acid]", "values": [{"measurement": "inhibition of Δ4β-reductase", "setting": "Δ4β-reductase", "result": "inhibit"}, {"measurement": "inhibition of 11β-hydroxysteroid dehydrogenase", "setting": "[7]", "result": "inhibit"}]}
{"smiles": "CC1(C)[C@@H](O[C@H]2O[C@H](C(=O)O)[C@@H](O)[C@H](O)[C@H]2O[C@@H]2O[C@H](C(=O)O)[C@@H](O)[C@H](O)[C@H]2O)CC[C@]2(C)[C@H]3C(=O)C=C4[C@@H]5C[C@@](C)(C(=O)O)CC[C@]5(C)CC[C@@]4(C)[C@]3(C)CC[C@@H]12", "note": "[glycyrrhizic acid, Glycyrrhizic acid]", "values": [{"measurement": "effect on contact dermatitis", "setting": "contact dermatitis; administered orally", "result": "ineffective"}, {"measurement": "effectiveness against contact dermatitis compared with prednisolone", "setting": "contact dermatitis; given intraperitoneally", "result": "more effective than prednisolone"}, {"measurement": "suppression of contact dermatitis", "setting": "contact dermatitis; given intraperitoneally", "result": "suppress"}, {"measurement": "growth of Staphylococcus aureus", "setting": "Staphylococcus aureus", "result": "inhibit the growth"}, {"measurement": "growth of Mycobacterium smegmatis", "setting": "Mycobacterium smegmatis", "result": "inhibit the growth"}, {"measurement": "growth of Candida albicans", "setting": "Candida albicans", "result": "inhibit the growth"}]}
{"smiles": "C[C@H](CCC(=O)O)[C@H]1CC[C@H]2[C@@H]3[C@H](O)C[C@@H]4C[C@H](O)CC[C@]4(C)[C@H]3CC[C@]12C", "note": "[chenodeoxycholic acid]", "values": [{"measurement": "inhibition of 11β-hydroxysteroid dehydrogenase", "setting": "[7]", "result": "inhibits"}]}
